# Results: US20090047243A1, “COMBINATIONS FOR THE TREATMENT OF B-CELL PROLIFERATIVE DISORDERS” (priority 2007, published 2009)
# What was measured:
# Assay in all cases: Anti-proliferation assay (ATPLite, 72 h)
# [1] = tested on: human multiple myeloma cells (MM.1S); assay type: cell-based; design: key to synergy score / synergy (score), PDEi × HE-NECA: S = lnfX·lnfY·ΣIdata(Idata−ILoewe), volume over Loewe additivity
# Protocol: (§1) ANBL6 and INA-6 culture media was also supplemented with 10 ng/ml IL-6. […] MM.1S, MM.1R, OCI-ly10, Karpas 422, and SU-DHL6 cells were provided by the Dana Farber Cancer Institute. H929, RPMI-8226, GA-10, and Farage cells were from ATCC (Cat #'s CCL-155, CRL-9068, CRL-2392 and CRL-2630 respectively). MOLP-8, EJM, KSM-12-PE, and OPM2 were from DSMZ. The ANBL6 and INA-6 cell lines were provided by the M. D. Anderson Cancer Research Center. Compounds were prepared in DMSO at 1000× the highest desired concentration. Master plates were generated consisting of serially diluted compounds in 2- or 3-fold dilutions in 384-well format. For single agent dose response curves, the master plates consisted of 9 individual compounds at 12 concentrations in 2- or 3-fold dilutions. For combination matrices, master plates consisted of individual compounds at 6 or 9 concentrations at 2- or 3-fold dilutions. […] To obtain combination data, two master plates were diluted into the assay plates. […] Thirty microliters of ATPLite (Perkin Elmer) at room temperature was then added to each well. […] Measurements were taken at the top of the well using a luminescence aperture and a read time of 0.1 seconds per well. The percent inhibition (% I) for each well was calculated using the following formula: % I=[(avg. untreated wells-treated well)/(avg. untreated wells)]×100. […] Negative inhibition values result from local variations in treated wells as compared to untreated wells. […] The uncertainty of each fitted parameter was estimated from the range over which the change in reduced chi-squared was less than one, or less than minimum reduced chi-squared if that minimum exceeded one, to allow for underestimated σI errors. Single agent curve data were used to define a dilution series for each compound to be used for combination screening in a 6×6 matrix format. […] The Loewe additivity model was used to quantify combination effects. […] A “Synergy Score” was also used, where the Synergy Score S=log fX log fY ΣIdata(Idata-ILoewe), summed over all non-single-agent concentration pairs, and where log fX,Y is the natural logarithm of the dilution factors used for each single agent. This effectively calculates a volume between the measured and Loewe additive response surfaces, weighted towards high inhibition and corrected for varying dilution factors. An uncertainty σS was calculated for each synergy score, based on the measured errors for the Idata values and standard error propagation.
# [2] = tested on: RPMI-8226 multiple myeloma cell line; assay type: cell-based, human; design: key: S = lnfX·lnfY·ΣIdata(Idata−ILoewe), volume over Loewe additivity
# Protocol: as §1
# [3] = tested on: H929 multiple myeloma cell line; assay type: cell-based, human; design: key: S = lnfX·lnfY·ΣIdata(Idata−ILoewe), volume over Loewe additivity
# Protocol: as §1
# [4] = tested on: human multiple myeloma cells (MM.1R); assay type: cell-based; design: key: S = lnfX·lnfY·ΣIdata(Idata−ILoewe), volume over Loewe additivity
# Protocol: as §1
# [5] = PDE inhibitor crossed with (S) ENBA, MM.1S
# [6] = PDE inhibitor crossed with ADAC, MM.1S
# [7] = PDE inhibitor crossed with Chloro-IB-MECA, MM.1S
# [8] = PDE inhibitor crossed with HE-NECA, MM.1S
# [9] = PDE inhibitor crossed with (S) ENBA, H929
# [10] = PDE inhibitor crossed with ADAC, H929
# [11] = PDE inhibitor crossed with Chloro-IB-MECA, H929
# [12] = PDE inhibitor crossed with HE-NECA, H929
# [13] = MM.1S, compared among four adenosine receptor antagonists
structure (smiles),measurement,setting,value
CCCn1c(=O)c2[nH]c(-c3ccc(OCC(=O)Nc4ccc(C#N)cc4)cc3)nc2n(CCC)c1=O [MRS 1574],inhibition at 0.175 µM,"[1]; Homo sapiens, MM1.S, after addition of 175 nM MRS 1754, Cl-IB-MECA 0 μM, Trequinsin conc. (μM), read-out: Percent inhibition of ATP in MM.1S cells",-13%
"CC(C)C(=O)c1c(C(C)C)nn2ccccc12 [Ibudilast, 1-(2-isopropyl-pyrazolo[1,5-a]pyridine-3-yl)-2-methylpropan-1-one]",synergy score,[1]; [5],0.55
same,synergy score,[1]; [6],0.23
same,synergy score,[1]; [7],0.74
same,synergy score,[1]; [8],0.98
same,synergy score,"[1]; in combination with adenosine receptor agonist CGS-21680, MM.1S",2.22
same,synergy score,"[1]; in combination with adenosine receptor agonist regadenoson, MM.1S",0.37
same,synergy score,"[2]; in combination with adenosine receptor agonist CGS-21680, RPMI 8226",0.47
same,synergy score,"[2]; in combination with adenosine receptor agonist regadenoson, RPMI 8226",0.29
same,synergy score,[3]; [9],0.21
same,synergy score,[3]; [10],1.04
same,synergy score,[3]; [11],0.32
same,synergy score,[3]; [12],0.32
same,synergy score,"[3]; in combination with adenosine receptor agonist CGS-21680, H929",1.76
same,synergy score,"[3]; in combination with adenosine receptor agonist regadenoson, H929",1.08
same,synergy score,"[4]; in combination with adenosine receptor agonist CGS-21680, MM.1R",2.29
same,synergy score,"[4]; in combination with adenosine receptor agonist regadenoson, MM.1R",1
CCCCC#Cc1nc(N)c2ncn([C@@H]3O[C@H](C(=O)NCC)[C@@H](O)[C@H]3O)c2n1.COc1ccc(Cc2nccc3cc(OC)c(OC)cc23)cc1OC [HE-NECA + Papaverine],percent inhibition of ATP in MM.1S cells,"[1]; 10 ng/mL IL-6, Papaverine 20.7 μM, HE-NECA conc. (μM)",97%
same,percent inhibition of ATP in MM.1S cells,"[1]; no IL-6, Papaverine 20.7 μM, HE-NECA conc. (nM)",95%
CCCCC#Cc1nc(N)c2ncn([C@@H]3O[C@H](C(=O)NCC)[C@@H](O)[C@H]3O)c2n1.COc1cc2c(cc1OC)-c1cc(=Nc3c(C)cc(C)cc3C)n(C)c(=O)n1CC2 [HE-NECA + Trequinsin],percent inhibition of ATP in MM.1S cells,"[1]; 10 ng/mL IL-6, Trequinsin 3.39 μM, HE-NECA conc. (nM)",94%
same,percent inhibition of ATP in MM.1S cells,"[1]; 10 ng/mL IL-6, Trequinsin 30.5 μM, HE-NECA conc. (nM)",100%
same,percent inhibition of ATP in MM.1S cells,"[1]; no IL-6, Trequinsin 30.5 (unit not given), HE-NECA conc. (nM)",98%
CCCOc1ccccc1-c1nc2nn[nH]c2c(=O)[nH]1 [Zaprinast],synergy score,[1]; [5],0.16
same,synergy score,[1]; [7],0.05
same,synergy score,[1]; [8],0.025
same,synergy score,[3]; [9],0.05
same,synergy score,[3]; [11],0.03
same,synergy score,[3]; [12],0.13
"CCCn1c(=O)c2[nH]c(C3CCCC3)nc2n(CCC)c1=O [DPCPX, 8-cyclopentyl-1,3-dipropylxanthine]",inhibition at 0.174 µM,"[1]; Homo sapiens, MM1.S, after addition of 174 nM DPCPX, CI-IB-MECA 0 μM, Trequinsin conc. (μM), read-out: Percent inhibition of ATP in MM.1S cells",-7.5%
CNC(=O)[C@H]1O[C@@H](n2cnc3c(NCc4cccc(I)c4)nc(Cl)nc32)[C@H](O)[C@@H]1O.COc1cc2c(cc1OC)-c1cc(=Nc3c(C)cc(C)cc3C)n(C)c(=O)n1CC2 [Cl-IB-MECA + Trequinsin],percent inhibition of ATP in MM.1S cells,"[1]; after addition of 170 nM MRS 1523, Cl-IB-MECA 2.96 μM, Trequinsin conc. (μM)",93%
Nc1nc2c(cnn2CCc2ccccc2)c2nc(-c3ccco3)nn12 [SCH 58261],blocking of chloro-IB-MECA antiproliferative activity,"[1]; MM.1S, 72 h, antagonist SCH 58261 at 78 nM",> 50%
same,antagonist effect on (S)-ENBA inhibition of cell growth,"[1]; MM.1S, 72 h, SCH 58261 78 nM, MRS 1523 183 nM, DPCPX 178 nM, MRS 1574 175 nM",most active of the antagonists
same,blocking of chloro-IB-MECA antiproliferative activity,"[1]; MM.1S, antagonist concentration increased 2-fold",> 70%
same,antagonist effect on chloro-IB-MECA crossed with trequinsin,[1]; [13],most active compound
same,antagonist effect on synergy of (S)-ENBA crossed with trequinsin,[1]; [13],most active compound
CNC(=O)[C@H]1O[C@@H](n2cnc3c(NCc4cccc(I)c4)nc(Cl)nc32)[C@H](O)[C@@H]1O.COc1cc2c(cc1OC)-c1cc(=Nc3c(C)cc(C)cc3C)n(C)c(=O)n1CC2 [CI-IB-MECA + Trequinsin],percent inhibition of ATP in MM.1S cells,"[1]; after addition of 174 nM DPCPX, CI-IB-MECA 2.96 μM, Trequinsin conc. (μM)",94%
same,percent inhibition of ATP in MM.1S cells,"[1]; no adenosine receptor antagonist added, CI-IB-MECA 1.48 μM, Trequinsin conc. (μM)",93%
C[C@@H]1C[C@H]2[C@@H]3CCC4=CC(=O)C=C[C@]4(C)[C@@]3(F)[C@@H](O)C[C@]2(C)[C@@]1(O)C(=O)CO [dexamethasone],IC50,"[1]; Homo sapiens, MM1.S, 72 h, MM.1S, 72 h, +IL-6 (10 ng/ml)",61.7 nM
same,IC50,"[1]; Homo sapiens, MM1.S, 72 h, MM.1S, no IL-6",179 nM
same,change in IC50 when cultured in the presence of IL-6,"[1]; MM.1S, 10 ng/ml IL-6 vs no IL-6",2.9 fold
CCCc1nn(C)c2c(=O)[nH]c(-c3cc(S(=O)(=O)N4CCN(C)CC4)ccc3OCC)nc12 [Sildenafil],synergy score,[1]; [5],0
same,synergy score,[1]; [6],0
same,synergy score,[1]; [7],0
same,synergy score,[1]; [8],0
same,synergy score,[3]; [9],0.03
same,synergy score,[3]; [10],0.14
same,synergy score,[3]; [11],0.03
same,synergy score,[3]; [12],0
COc1cc2c(cc1OC)-c1cc(=Nc3c(C)cc(C)cc3C)n(C)c(=O)n1CC2.NCCNC(=O)Cc1ccc(NC(=O)Cc2ccc(Nc3ncnc4c3ncn4[C@@H]3O[C@H](CO)[C@@H](O)[C@H]3O)cc2)cc1 [ADAC + Trequinsin],percent inhibition of ATP in MM.1S cells,"[1]; 10 ng/mL IL-6, ADAC 1.17 μM, Trequinsin conc. (μM)",94%
same,percent inhibition of ATP in MM.1S cells,"[1]; 10 ng/mL IL-6, ADAC 3.51 μM, Trequinsin conc. (μM)",93%
same,percent inhibition of ATP in MM.1S cells,"[1]; 10 ng/mL IL-6, ADAC 10.5 μM, Trequinsin conc. (μM)",93%
same,percent inhibition of ATP in MM.1S cells,"[1]; 10 ng/mL IL-6, ADAC 31.6 μM, Trequinsin conc. (μM)",93%
same,percent inhibition of ATP in MM.1S cells,"[1]; 10 ng/mL IL-6, ADAC […], Trequinsin conc. (μM)",95%
